From patent US20100028259A1, “USE OF ORGANIC CATION TRANSPORTERS FOR CANCER DIAGNOSIS AND THERAPY” (The Regents of the University of California, priority 2006, published 2010)
Like-named read-outs stand apart in the source and are kept apart here.

Experiments:
MDCK-hOCT1 cells = experiment: Platinum-DNA adduct formation in MDCK-hOCT1 cells; format: cell-based, canine
Description: After incubation at 37° C. and 5% CO2 for 2 hours, the cells were washed with ice-cold PBS three times and harvested. The genomic DNA was isolated from the cells and the platinum content associated with DNA was determined by ICP-MS and normalized for DNA content. Data are expressed as mean±SD from a typical experiment performed in triplicate. Two independent experiments were conducted and similar results were obtained.
After incubation, the cells were washed with ice-cold PBS three times and harvested. Genomic DNA was isolated from the harvested cells and the DNA-associated platinum content was determined by ICP-MS and normalized for the DNA content. Data are expressed as mean±SD of three measurements.
The platinum content associated with genomic DNA was determined as described in Samimi et al., Clin. Cancer Res., 10:4661-4669 (2004) with some modifications. Briefly, the cells were grown in 100 mm×20 mm dishes in the culture medium without any antibiotics to over 90% confluence. For HEK 293 cells, poly-D-lysine coated dishes were used. Then, the cells were incubated in the culture medium containing the specified concentrations of the platinum-based compounds at 37° C. in 5% CO2 for 2 hours (or 25 min as specified). In some experiments, phosphate buffer (PB: 1.06 mM KH2PO4, 2.97 mM Na2HPO4, pH 7.4) containing 155 mM NaCl (PB—Cl buffer) or 103 mM Na2SO4 (PB—SO4 buffer) was used instead of the culture medium as specified. For the OCT inhibitor study, the incubation medium (buffer) also contained disopyramide or cimetidine). If PB—Cl or PB—SO4 buffer was used, the cells were washed with the same buffer once before drug incubation. After incubation, the cells were washed with ice-cold PBS, scraped, and pelleted. Genomic DNA was isolated from the cell pellets using the Wizard® Genomic DNA Purification Kit (Promega, Madison, Wis.) following the manufacturer's instructions. Briefly, the cells were lysed with Nuclei Lysis Solution. After RNA digestion and protein precipitation, the lysates were centrifuged and the resulting supernatant was aliquoted. The genomic DNA prepared from two different aliquots of the supernatant was used for platinum and DNA content determination, respectively. For the determination of platinum, the DNA samples were treated with 70% nitric acid at 65° C. and diluted in the same way as described above. The platinum content was analyzed using ICP-MS and the DNA content was measured by absorption spectroscopy.

SW620 = experiment: MTT drug sensitivity, colon cancer cell line SW620; format: cell-based, human
Description: (§1) Cytotoxicity of the platinum-based compounds was measured by MTT (thiazolyl blue tetrazolium bromide) assay. Cells were seeded in 100 μl of the culture medium without any antibiotics in 96-well plates at a predetermined cell density. For HEK 293 cells, poly-D-lysine coated plates were used. […] For the OCT inhibitor studies, the inhibitors (i.e., disopyramide or cimetidine) were added to the medium at a specified concentration immediately before the addition of the platinum-based compounds. After incubation for a specified time period, the drug-containing medium was replaced with fresh, drug-free medium and the incubation was continued for a total of 72 hours (start from the addition of platinum-based compounds). Then, the MTT assay was performed similarly as described in Alley et al., Cancer Res., 48:589-601 (1988). […] The maximal cell growth was the cell growth in the medium without any platinum-based compounds; C is the concentration of the platinum-based compound, and γ is the slope factor.
(§2) The cell seeding density was 6,000-, 8,000-, 6,000-, 15,000-12,000- and 4,000 cells/well for HCT116, HT29, RKO, SW620, LS180, and DLD cells, respectively. When cimetidine (1.5 mM) was used, it was added to the wells immediately before the addition of the platinum-based drugs. The resistance factor (RF) was defined as the ratio of the mean IC50 value in the presence to that in the absence of cimetidine. Data are expressed as mean±SD from six measurements, and each measurement was performed in quadruplicate.

RKO = experiment: MTT drug sensitivity, colon cancer cell line RKO; format: cell-based, human
Description: as §1, §2

MDCK-MOCK cells = experiment: Cellular accumulation of platinum in MDCK-MOCK cells (ICP-MS); format: in vitro ADME, canine; conditions: 2-hr exposure
Description: For the inhibitor studies, the incubation medium also contained disopyramide (150 μM). […] For the inhibitor studies, the incubation medium also contained cimetidine (1.5 mM). […] After drug exposure, the cells were washed with ice-cold PBS three times and harvested by scraping and centrifugation. The cell-associated platinum was determined by ICP-MS and normalized for protein content. Data are expressed as mean±SD from a single experiment performed in triplicate. Experiments were replicated for OCT1 and OCT2, and similar results were obtained.
The cellular accumulation of platinum was determined as described in Holzer et al., Mol. Pharmacol., 66:817-823 (2004) with some modifications. Briefly, the cells were grown in 100 mm×20 mm dishes in the culture medium without any antibiotics to over 90% confluence. For HEK 293 cells, poly-D-lysine coated dishes were used. For platinum accumulation, the cells were incubated in the culture medium containing the indicated concentrations of the platinum compounds at 37° C. in 5% CO2 for 2 hr unless specified. After incubation, the dishes were immediately placed on ice and the cells were washed with 6 ml of ice-cold PBS for three times and collected with a rubber policeman. The cell pellets were obtained by centrifugation at 400×g and at 4° C. for 15 min. For the OCT inhibitor studies, the incubation medium also contained the indicated inhibitor (i.e., disopyramide or cimetidine) in addition to the platinum-based compounds. The resulting cell pellets were then dissolved into 200 μl of 70% nitric acid at 65° C. for at least 2.5 hours, and then distilled water containing 10 ppb of iridium (Sigma) and 0.1% Triton X-100 was added to the samples to dilute nitric acid to 7%. The platinum content was measured by inductively plasma coupled mass spectrometry (ICP-MS) in the Analytical Facility at the University of California at Santa Cruz (Santa Cruz, Calif.). Cell lysates from a set of identical cultures were used for BCA protein assay.

HT29 = experiment: MTT drug sensitivity, colon cancer cell line HT29; format: cell-based, human
Description: as §1, §2

[1] = 2-hr exposure, disopyramide 150 μM

With O=C1[O][Pt]2([NH][C@@H]3CCCC[C@H]3[NH]2)[O]C1=O [oxaliplatin] the “rb in MDCK-hOCT1” value (MDCK-hOCT1 cells; 20 μM, PB—Cl, 25 min) was 3.08±0.41×10^−6, the “rb in MDCK-hOCT1” value (MDCK-hOCT1 cells; 20 μM, PB—SO4, 25 min) was 1.31±0.29×10^−6 and the “Pt-DNA adduct level in MDCK-hOCT1” value (MDCK-hOCT1 cells; 20 μM, chloride free buffer PB—SO4, 25 min) was 0.00398±0.00089 pmol/μg DNA. The “DNA-associated platinum level in MDCK-hOCT1” value (MDCK-hOCT1 cells; 20 μM, chloride-containing buffer PB—Cl, 25 min) was 0.00933±0.00124 pmol/μg DNA, the “platinum-DNA adduct level in MDCK-hOCT1, disopyramide-treated” value (MDCK-hOCT1 cells; [1]) was 0.0217±0.0019 pmol/μg DNA and the “rb in MDCK-hOCT1, disopyramide-treated” value (MDCK-hOCT1 cells; [1]) was 7.16±0.63×10^−6. For the same molecule, the “platinum-DNA adduct level in MDCK-hOCT1” value (MDCK-hOCT1 cells; 2-hr exposure, oxaliplatin 10 μM, culture medium) was 0.0457±0.0011 pmol/μg DNA, the IC50 (SW620; SW620, absence of cimetidine, read-out: IC50 Control) was 2.81 ± 1 µM and the IC50 (SW620; SW620, cimetidine 1.5 mM, read-out: IC50 Cimetidine-treated) was 14.2 ± 2.81 µM. For the same molecule, the IC50 (RKO; absence of cimetidine, read-out: IC50 Control) was 1.64 ± 0.56 µM, the IC50 (RKO; cimetidine 1.5 mM, read-out: IC50 Cimetidine-treated) was 9.7 ± 2.7 µM and the “cellular platinum accumulation rate in MDCK-MOCK, disopyramide-treated” value (MDCK-MOCK cells; 3 μM, disopyramide 150 μM) was 3.23±0.31 pmol/mg protein-hour. For the same molecule, the “cellular platinum accumulation rate in MDCK-MOCK” value (MDCK-MOCK cells; drug 3 μM) was 2.94±0.11 pmol/mg protein-hr, the IC50 (HT29; HT29, absence of cimetidine, read-out: IC50 Control) was 4.56 ± 1.4 µM and the IC50 (HT29; HT29, cimetidine 1.5 mM, read-out: IC50 Cimetidine-treated) was 52.1 ± 18.5 µM.
